Test results taken from patent US20250255867A1 (Kadmon Corporation, LLC, priority 2022, published 2025).

Assay: Example 2: safety (AE, SAE, relative dose intensity)
Format: in vivo
Method: All responses were assessed by the study site investigators.

For CC(C)NC(=O)COc1cccc(-c2nc(Nc3ccc4[nH]ncc4c3)c3ccccc3n2)c1 [Belumosudil, 2-{3-[4-(1H-indazol-5-ylamino)-2-quinazolinyl]phenoxy}-N-(propan-2-yl) acetamide], the ALT increased (200 mg daily (n = 66)) was 4 (6) n (%), the AST increased (200 mg daily (n = 66)) was 5 (8) n (%) and the “Any AE” value (200 mg daily (n = 66)) was 65 (99) n (%). The Bilirubin conjugated increased (200 mg daily (n = 66)) was 1 (2) n (%), the “Blood alkaline phosphatase increased” value (200 mg daily (n = 66)) was 4 (6) n (%) and the “Cough, all grades” value (200 mg daily (n = 66)) was 20 (30) n (%). The Deaths (200 mg daily (n = 66)) was 8 (12) n (%), the “Diarrhea, all grades” value (200 mg daily (n = 66)) was 23 (35) n (%) and the “Drug-related AEs” value (200 mg daily (n = 66)) was 49 (74) n (%). The “Drug-related SAEs” value (200 mg daily (n = 66)) was 5 (8) n (%), the “Dyspnea, all grades” value (200 mg daily (n = 66)) was 21 (32) n (%) and the “Fatigue, all grades” value (200 mg daily (n = 66)) was 30 (46) n (%). For the same compound, the GGT increased (200 mg daily (n = 66)) was 6 (9) n (%), the “Grade ≥3 AEs” value (200 mg daily (n = 66)) was 37 (56) n (%) and the “Headache, all grades” value (200 mg daily (n = 66)) was 13 (20) n (%). For the same compound, the “Hyperglycemia, Grade ≥3” value (200 mg daily (n = 66)) was 3 (5) n (%), the “Hypertension, Grade ≥3” value (200 mg daily (n = 66)) was 4 (6) n (%) and the Hypoalbuminemia (200 mg daily (n = 66)) was 2 (3) n (%). The LFT increased (200 mg daily (n = 66)) was 1 (2) n (%), the “Liver-related AEs” value (200 mg daily (n = 66)) was 12 (18) n (%) and the “Muscle spasms, all grades” value (200 mg daily (n = 66)) was 13 (20) n (%). For the same compound, the “Nausea, all grades” value (200 mg daily (n = 66)) was 23 (35) n (%), the “Peripheral edema, all grades” value (200 mg daily (n = 66)) was 17 (26) n (%) and the “Pneumonia, Grade ≥3” value (200 mg daily (n = 66)) was 6 (9) n (%). For the same compound, the SAEs (200 mg daily (n = 66)) was 27 (41) n (%), the Transaminases increased (200 mg daily (n = 66)) was 1 (2) n (%) and the “Upper respiratory tract infection, all grades” value (200 mg daily (n = 66)) was 17 (26) n (%). The “Vomiting, all grades” value (200 mg daily (n = 66)) was 18 (27) n (%), the ALT increased (200 mg twice daily (n = 66)) was 7 (11) n (%) and the AST increased (200 mg twice daily (n = 66)) was 8 (12) n (%). The “Any AE” value (200 mg twice daily (n = 66)) was 66 (100) n (%), the Bilirubin conjugated increased (200 mg twice daily (n = 66)) was 0 n (%) and the “Blood alkaline phosphatase increased” value (200 mg twice daily (n = 66)) was 6 (9) n (%). The “Cough, all grades” value (200 mg twice daily (n = 66)) was 17 (26) n (%), the Deaths (200 mg twice daily (n = 66)) was 6 (9) n (%) and the “Diarrhea, all grades” value (200 mg twice daily (n = 66)) was 21 (32) n (%). The “Drug-related AEs” value (200 mg twice daily (n = 66)) was 40 (61) n (%), the “Drug-related SAEs” value (200 mg twice daily (n = 66)) was 2 (3) n (%) and the “Dyspnea, all grades” value (200 mg twice daily (n = 66)) was 12 (18) n (%). The “Fatigue, all grades” value (200 mg twice daily (n = 66)) was 20 (30) n (%), the GGT increased (200 mg twice daily (n = 66)) was 10 (15) n (%) and the “Grade ≥3 AEs” value (200 mg twice daily (n = 66)) was 34 (52) n (%). The “Headache, all grades” value (200 mg twice daily (n = 66)) was 18 (27) n (%), the “Hyperglycemia, Grade ≥3” value (200 mg twice daily (n = 66)) was 3 (5) n (%) and the “Hypertension, Grade ≥3” value (200 mg twice daily (n = 66)) was 4 (6) n (%). The Hypoalbuminemia (200 mg twice daily (n = 66)) was 2 (3) n (%), the LFT increased (200 mg twice daily (n = 66)) was 0 n (%) and the “Liver-related AEs” value (200 mg twice daily (n = 66)) was 19 (29) n (%). The “Muscle spasms, all grades” value (200 mg twice daily (n = 66)) was 13 (20) n (%), the “Nausea, all grades” value (200 mg twice daily (n = 66)) was 18 (27) n (%) and the “Peripheral edema, all grades” value (200 mg twice daily (n = 66)) was 13 (20) n (%). The “Pneumonia, Grade ≥3” value (200 mg twice daily (n = 66)) was 4 (6) n (%), the SAEs (200 mg twice daily (n = 66)) was 23 (35) n (%) and the Transaminases increased (200 mg twice daily (n = 66)) was 1 (2) n (%). The “Upper respiratory tract infection, all grades” value (200 mg twice daily (n = 66)) was 18 (27) n (%), the “Vomiting, all grades” value (200 mg twice daily (n = 66)) was 10 (15) n (%) and the ALT increased (Total (N = 132)) was 11 (8) n (%). The AST increased (Total (N = 132)) was 13 (10) n (%), the “Any AE” value (Total (N = 132)) was 131 (99) n (%) and the Bilirubin conjugated increased (Total (N = 132)) was 1 (1) n (%). For the same compound, the “Blood alkaline phosphatase increased” value (Total (N = 132)) was 10 (8) n (%), the “Cough, all grades” value (Total (N = 132)) was 37 (28) n (%) and the “Diarrhea, all grades” value (Total (N = 132)) was 44 (33) n (%). For the same compound, the “Drug-related AEs” value (Total (N = 132)) was 89 (67) n (%), the “Drug-related SAEs” value (Total (N = 132)) was 7 (5) n (%) and the “Dyspnea, all grades” value (Total (N = 132)) was 33 (25) n (%). For the same compound, the “Fatigue, all grades” value (Total (N = 132)) was 50 (38) n (%), the GGT increased (Total (N = 132)) was 16 (12) n (%) and the “Grade ≥3 AEs” value (Total (N = 132)) was 71 (54) n (%). For the same compound, the “Headache, all grades” value (Total (N = 132)) was 31 (24) n (%) and the “Hyperglycemia, Grade ≥3” value (Total (N = 132)) was 6 (5) n (%).
